Experiment [1] concerns poly (ADP-ribose)polymerase (PARP). Briefly: PARP activity by 3H-NAD incorporation in aortic endothelial cells. It is filed as cell-based, bovine. Conditions: 30 mM glucose plus 100 μM compound, 6 days, FIG. 25. How it is done:
Bovine aortic endothelial cells (“BAECs”, passage 4-10) were plated in 10 mm cell culture plates until confluent. Cells were incubated with either 5 mM glucose, 30 mM glucose, 30 mM glucose plus 100 μM deferoxamine, or 30 mM glucose plus 100 μM DMSO for 6 days and medium changed daily.
The 3H-NAD incorporation method was used to assess PARP activity. BAECs were incubated with buffer which was composed of 56 mM Hepes (pH 7.5), 28 mM KCl, 28 mM NaCl, 2 mM MgCl2, 0.01% digitonin, 25 mM NAD^+, and 1 μCi/ml ^3HNAD^+ for 10 min at 37° C. TCA was added to precipitate ribosylated protein and cells were lysed in 2% NaOH. Detection of incorporated ^3H-NAD was performed using a scintillation counter, and PARP activity determined according to the number of ^3H-NAD dpm.

The test system of experiment [2] is bovine aortic endothelial cells. Briefly: DNA strand breakage, Comet assay. Conditions: 30 mM glucose plus 100 μM compound, 7 days, FIG. 24. It is filed as cell-based. As to the method:
Bovine aortic endothelial cells (“BAECs”, passage 4-10) were plated in 10 mm cell culture plates until confluent. Cells were incubated with either 5 mM glucose, 30 mM glucose, 30 mM glucose plus 100 μM deferoxamine (DFO), or 30 mM glucose plus 100 μM DMSO, a hydroxyl radical scavenger, for 7 days. Medium with reagents was changed daily. DNA strand breakage was detected using the Comet assay method.
DNA breakage detection was performed using the Comet Assay kit (Trevigen Gaitherburg Md.). Briefly, single cell electrophoresis was performed on the cometslide for 10 min at 1 volt/cm (measured from one electrode to another). After air-drying, the cometslide was stained with SYBR green. Fluorescence was detected using the Olympus IX70 fluorescent microscope and analysis of the fluorescent density of DNA breakage (length of tail) was performed using Image J software.

The test system is the same in experiment [3]. Briefly: Hyperglycemia-induced intracellular reactive oxygen species production (CM-H2DCFDA probe). It is filed as cell-based. Conditions: 30 mM glucose plus 250 μM deferoxamine, 72 hrs, FIG. 21 bar 4. As to the method:
Cell culture conditions: For ROS measurement, bovine aortic endothelial cells (BAECs, passage 4-10) were plated in 96 well plates at 100,000 cells/well in Eagle's MEM containing 10% FBS, essential and nonessential amino acids, and antibiotics. Cells were incubated with either 5 mM glucose, 30 mM glucose, 30 mM glucose plus 100 micromolar deferoxamine, 30 mM glucose plus 250 micromolar deferoxamine. The deferoxamine was freshly prepared and added to the cells on three consecutive days. The ROS measurements were performed 72 hrs after the initial treatment.
Intracellular reactive oxygen species measurements: The intracellular formation of reactive oxygen species was detected using the fluorescent probe CMH2DCFDA (Molecular Probes). Cells (1×105 ml-1) were loaded with 10iM CM-H2DCFDDA, incubated for 45 min at 37° C., and analyzed in an HTS 7000 Bio Assay Fluorescent Plate Reader (Perkin Elmer) using the HTSoft program. ROS production was determined from an H202 standard curve (10-200 nmol ml-1).

For experiment [4], the system named is prostacyclin synthase. Briefly: Prostacyclin synthase activity in aortas of diabetic mice. It is filed as in vivo, mouse. Conditions: STZ diabetic mice, 10 mg/kg subcutaneously once per day for 7 days, FIG. 27 bar 3. How it is done:
Male C57B16 mice (6-8 weeks old) were made diabetic by daily injections of 50 mg/kg streptozotocin in 0.05 M NaCitrate pH 4.5 after an eight hour fast, for five consecutive days. Two weeks after the initial injection the blood glucose was determined and the diabetic mice were randomized into two groups with equal mean blood glucose levels. Deferoxamine (10 mg/kg) was injected subcutaneously once per day for 7 days in one group of diabetic animals. The aortas were collected. for prostacyclin synthase activity measurement.
Prostacyclin synthase activity measurement A competitive immunoassay method (Correlate-EIA) was used for the quantitative determination of 6-keto-PGF1α. Mouse aortas were washed with PBS and incubated at 37° C. for 3 hours in 400 μl incubation buffer containing 20 mM TRIS buffer (pH 7.5), and 15 μM arachidonic acid. 100 μl of sample was used to measure the PGF 1α.

Experiment [5] can be described thus: Migration of diabetic bone marrow derived, lineage depleted cells toward SDF. It is filed as cell-based, mouse. Conditions: cells from STZ mice treated with deferoxamine.
Experiment [6] relates to streptozotocin-induced diabetic (STZ) and wild type C57 (WT) mice. Nature of the experiment: Graded ischemia model in dorsal soft tissue (ischemic flap), angiogenic response to ischemia. It is filed as in vivo, mouse. Conditions: for EPC mobilization: STZ mice vs untreated STZ mice, day 7 postischemic insult, FIG. 35. The text has this:
Since the vascular anatomy of the mouse dorsum is precisely known, and the major axial vessels can be easily visualized, one can create a reliable zone of ischemia with a reproducible oxygen gradient in the tissue. This has been confirmed with direct tissue oxygen tension measurements utilizing five reference points (p1-p5) spaced 0.5 cm apart proceeding from the least to most ischemic regions. This also allows for the study of discrete microenvironments of ischemia (Areas A, B, C), with Area A being the least ischemic and Area C being the most ischemic portion of the soft tissue. The design of this model facilitates direct dynamic measurement of oxygen tension, quantitation of tissue survival, with a degree of reproducibility that allows correlation of specific oxygen tensions with changes in gene expression.
Researchers have created a novel model of graded ischemia in the dorsal soft tissue of mice. Since the vascular anatomy of the mouse dorsum is precisely known, and the major axial vessels can be easily visualized, this model creates a reliable zone of ischemia with a reproducible oxygen gradient in the tissue. This has been confirmed with direct tissue oxygen tension measurements utilizing four reference points (p1-p4) spaced 0.5 cm apart, proceeding from the least to most ischemic regions.
The effect of deferoxamine, an iron chelator, on ischemic neovascularization in streptozotocin-induced diabetic (STZ) and wild type C57 (WT) mice was examined. Male C57B16 mice (6-8 weeks old) were made diabetic by daily injections of 50 mg/kg streptozotocin in 0.05 M NaCitrate pH 4.5 after an eight hour fast, for five consecutive days. Two weeks after the initial injection the blood glucose was determined, the diabetic mice were randomized into two groups with equal mean blood glucose levels.
The treatment group was pretreated 7 days prior to having an ischemic flap created on their dorsum and throughout the experiment with daily injections of deferoxamine (10 mg/kg) subcutaneously once per day for 7 days in one group of diabetic animals. […]

Experiment [7] has as its system endothelial nitric oxide synthase (eNOS). Briefly: eNOS activity in aortas of diabetic mice. Conditions: STZ diabetic mice, 10 mg/kg subcutaneously once per day for 7 days, FIG. 29 bar 3. It is filed as in vivo, mouse. How it is done:
Male C57B16 mice (6-8 weeks old) were made diabetic by daily injections of 50 mg/kg streptozotocin in 0.05 M NaCitrate pH 4.5 after an eight hour fast, for five consecutive days. Two weeks after the initial injection, the blood glucose was determined and the diabetic mice were randomized into two groups with equal mean blood glucose levels. Deferoxamine (10 mg/kg) was injected subcutaneously once per day for 7 days in one group of diabetic animals. The aortas were collected for endothelial nitric oxide synthase (eNOS) activity measurement.
Measurement eNOS activity was accomplished as follows. Aortas were collected in liquid-nitrogen and tissue proteins isolated. Immunoprecipitation methods were used to purify the eNOS from tissue lysates. The purified eNOS immuno-complex was incubated with 100 μl of reaction buffer (3 μM Tetrahydrobiopterin, ImM NAPDH, 2.5 mM CaCl2, 200 U Calmodulin, ^3H-L-arginine 0.2 μCi) for 45 min at 37° C. with rolling. After the incubation, samples were loaded onto Tris-formed DOWEX 50WX8 ion-exchange column and ^3H-citrulline was collected. ^3H-citrulline was quantitated using a liquid scintillation counter and eNOS activity was calculated from the amount of ^3H-citrulline generated.

The next experiment has as its system diabetic mice (db/db). Briefly: Diabetic wound healing (wound closure). It is filed as in vivo, mouse. Conditions: deferoxamine-treated diabetic mice, FIGS. 33A-B. An excerpt:
The effect of reducing the wound healing in diabetic mice (db/db) by treating them with deferoxamine was also studied in the novel model of graded ischemia in the dorsal soft tissue of mice of Example 20. The animals were made diabetics as described in Example 21.

For experiment [8], the system named is endothelial nitric oxide synthase (eNOS). Briefly: eNOS activity (3H-citrulline) in aortic endothelial cells. It is filed as cell-based, bovine. Conditions: 30 mM glucose plus 100 μM deferoxamine, 24 hour, FIG. 28 bar 3. As to the method:
Bovine aortic endothelial cells (“BAECs”, passage 4-10) were plated in 24-well plate (50,000 cell/well). Cells were incubated with either 5 mM glucose, 30 mM glucose alone, or 30 mM glucose plus 100 μM deferoxamine, for 24 hour. Six hours before eNOS activity determination, media without arginine was added to the cells to deplete endogenous arginine.
Measurement of eNOS activity was accomplished as follows. BAECs were incubated with 400 μl of PBS-^3H-arginine (1.5 μci/ml) buffer for 30 min at 37° C. The reaction was stopped by adding IN TCA (500 μl/well, ice cold ), the cells were freeze fractured in liquid nitrogen for 2 min and thawed at 37° C. for 5 min to obtain the cell lysate. After extraction with ether, the cell lysate was adjusted to pH 5.5 using Hepes buffer containing 2 mM EDTA and 2 mM of EGTA, then loaded onto Trisformed DOWEX 50WX8 ion-exchange columns and ^3H-citrulline collected. Detection of ^3H-citrulline was performed using a liquid scintillation counter, and eNOS activity was calculated from the amount of ^3H-citrulline generated.

The subject of experiment [9] is bovine aortic endothelial cells. Nature of the experiment: Free intracellular iron measurement (fura-2 AM). It is filed as cell-based. Conditions: 30 mM glucose plus 100 μM deferoxamine, 24 hours, FIG. 23C. How it is done:
In order to detect intracellular free iron, cells were loaded with fura-2 AM in the dark at 37° C. for 15 min in 1 ml of TBSS containing 5 μM furs-2 AM. After loading, cells were incubated with TBSS with Iml of 20 μM EDTA for 5 min. (Kress et al., “The Relationship between Intracellular Free Iron and Cell Injury in Cultured Neurons, Astrocytes, and Oligodendrocytes”, J. Neuro., 22(14):5848-5855 (2002), which is hereby incorporated by reference in its entirety). Fluorescence was detected using an Olympus IX70 with 10 X planapo objectives, run by I.P. Lab Spectrum on a Power PC computer. Analysis was performed with I.P.Lab Spectrum.
Bovine aortic endothelial cells (“BAECs”, passage 4-10) were plated in 24 well plates at […] in Eagle's MEM containing 10% FBS, essential and nonessential amino acids, and antibiotics. Cells were incubated with either 5 mM glucose, 30 mM glucose, or 30 mM glucose plus 100 μM deferoxamine. Free intracellular iron measurement was performed 24 hours later. To detect intracellular free iron, cells were loaded with fura-2 AM as described above in Example 12.

The test system of experiment [10] is prostacyclin synthase. Nature of the experiment: Prostacyclin synthase activity (6-keto-PGF1α immunoassay) in aortic endothelial cells. It is filed as cell-based, bovine. Conditions: 30 mM glucose plus 100 μM deferoxamine, 24 hours, FIG. 26 bar 3. How it is done: Bovine aortic endothelial cells (“BAECs”, passage 4-10) were plated in a 24-well plate (50,000 cell/well). Cells were incubated with either 5 mM glucose, 30 mM glucose, or 30 mM glucose plus 100 μM deferoxamine. The prostacyclin synthase product, PGF-1α, was measured 24 hours later.
Prostacyclin synthase activity measured as the concentration of the stable product of prostacyclin synthase, PGF-1a. A competitive immunoassay method (Correlate-EIA) was used for the quantitative determination of 6-keto-PGF1α. Samples (100 μl) collected from BAECs culture medium were added to the assay plate, which was precoated with antibody (6-keto-PGF1α, EIA conjugate solution). PGF1α concentration was calculated according to a standard curve, and data analysis performed using AssayZap software.

Structures are written as SMILES.

For `C[S+](C)[O-]` [DMSO], the “hyperglycemia-induced PARP activation” value in experiment [1] is reported as “Inhibit”. Besides, the “hyperglycemia-induced DNA strand breakage” value in experiment [2] is recorded as “Inhibit”.

With `CC(=O)N(O)CCCCCNC(=O)CCC(=O)N(O)CCCCCNC(=O)CCC(=O)N(O)CCCCCN` [deferoxamine], the “hyperglycemia-induced increased ROS (superoxide) production” value in experiment [3] is on record as “completely prevents”. For the same molecule, the “diabetes-induced inhibition of prostacyclin synthase activity in aortas” value with prostacyclin synthase [4] was “does not inhibit the activity of this important antiatherogenic enzyme at all”. In addition, the “migration toward SDF” value in [5] is “restored to normal”. Besides, the EPC mobilization result in [6] is “improved”; in experiment [6] (listed as Deferoxamine), “restores”. The tissue survival result in [6] (STZ mice, 10 mg/kg s.c. daily, FIG. 31B) is given as “restored to normal”. Moreover, the “blood flow assessed by Doppler” value in experiment [6] (STZ mice, 10 mg/kg s.c. daily, day 7, FIG. 31A) was “restored to normal”. In [6] (STZ mice, FIG. 32), the “post-ischemic neovascularization (CD31 positive blood vessel counts)” value is “restored”. In [6] (deferoxamine-treated diabetic animals, FIGS. 34C-D), the “bone marrow-derived endothelial precursor cells mobilized in response to ischemia” value was 1.12%. The “capillary formation in ischemic tissue” value in experiment [6] (deferoxamine-treated diabetic mice vs untreated, FIG. 34E-F) is reported as “substantially increase”. Moreover, in experiment [6] (deferoxamine-treated diabetic mice, FIGS. 34A-B), the “oxygenation of ischemic flap by forming new vessels” value is reported as “increase oxygenation”. The “diabetes-induced defect in the normal angiogenic response to ischemia” value in experiment [6] (diabetic animals treated with deferoxamine) is “completely prevents”. Further, the “neovascularization (CD31 positive blood vessel counts)” value in experiment [6] (wild type mice, FIG. 32) is listed as “improved neovascularization”. In [7], the “diabetes-induced inhibition of eNOS activity in aortas” value was “does not inhibit the activity of this important antiatherogenic enzyme at all”. Also, the “hyperglycemia-induced PARP activation” value in [1] was “prevents”. In the experiment on diabetic mice (db/db), this molecule showed a complete wound closure of 16 days. Further, the “hyperglycemia-induced inhibition of eNOS activity” value in experiment [8] is “does not inhibit the activity of this important antiatherogenic enzyme at all”. The “hyperglycemia-induced increase in intracellular free iron” value in experiment [9] was “completely prevents”. In addition, the “hyperglycemia-induced inhibition of prostacyclin synthase activity (PGF-1α)” value with prostacyclin synthase [10] is recorded as “does not inhibit the activity of this important antiatherogenic enzyme at all”. Further, in experiment [2], the “hyperglycemia-induced DNA strand breakage” value is given as “prevents”.

For the origin of these results see US9737511B2, “Method of treating or preventing pathologic effects of acute increases in hyperglycemia and/or acute increases of free fatty acid flux” (Albert Einstein College of Medicine, Inc., priority 2004, dated 2017).
